From US12098109B2, “Reaction methods for producing nitrogenous phosphoryl compounds that are in situ fluid compositions” (SOILGENIC TECHNOLOGIES, LLC, priority 2021, dated 2024)
Where two headings read alike, the source gives them in different places. One block for each compound: values may come before it.

Tests used:
[1] = Flowability by elapsed flow-out time; assay type: physicochemical
Experimental: (§1) Stability was determined by the measurement of the top clear layer after 3 days @ 50° C. Flowability was determined by measuring the elapsed time that it took for 4 grams of the 5 gram sample to flow out of a container with a 0.9 cm opening @ 25° C.

[2] = Stability by top clear layer after 3 days @ 50 C; assay type: physicochemical
Experimental: as §1

[3] = 1% dispersibility in water, 1 gram of sample in 99 grams of water
[4] = Sedimentation of inorganic chloride particles of Example 14 after adding organic liquids; assay type: physicochemical
[5] = test system: West Texas Soil (Estacado Clay Loam); assay: Ammonia generation, N Yield vs N Yield + NH4Cl solutions with urea dropped onto soil sample; settings: in the presence of NBPT
[6] = test system: West Texas Soil (Estacado Clay Loam); assay: NH4Cl vs DCD as nitrification inhibitor, ammonia generation from treated urea; settings: compared to DCD
[7] = test system: West Texas Soil (Estacado Clay Loam); assay: Ammonia generation from treated urea on soil, headspace NH3 by Draeger am-5000 meter; settings: for Measuring Ammonia Generation, Days Ran 3: day 3; for Measuring Ammonia Generation, Days Ran 4: day 4; for Measuring Ammonia Generation, Days Ran 5: day 5; for Measuring Ammonia Generation, Days Ran 6: day 6; for Measuring Ammonia Generation, Days Ran 7: day 7; for Measuring Ammonia Generation, Days Ran 10: day 10; for Measuring Ammonia Generation, Days Ran 11: day 11; for Measuring Ammonia Generation, Days Ran 13: day 13
[8] = 4% organic liquid added to Example 56, time for 4 grams of 5 gram sample to flow out of 0.9 cm opening @ 25 C
[9] = 4% organic liquid added to Example 56, top clear layer after 3 days @ 50 C
[10] = 4% organic liquid added to Example 56
[11] = organic liquid added to Example 56 at a 4% level
[12] = One Month Storage of treated urea
[13] = Two Month Storage of treated urea

Compound: CCOP(=O)(OCC)OCC [triethyl phosphate]
- seconds (flowability) [1]: 4.03 s
- Clear layer (cm) [2]: 0.4 cm
- Clear layer in inches of a 4 inch sample [4]: 0 inches
- 1% dispersibility in water rating [3]: 6
- effect on Example 56's dispersibility in water [3]: improve Example 56's dispersibility in water significantly

Compound: butyl carbonate
- Clear layer in inches of a 4 inch sample [4]: 0 inches

Compound: Cl.N [NH4Cl, ammonium chloride]
- behaviour in ammonia generation test [5]: performing as a nitrification inhibitor
- performance as a nitrification inhibitor [6]: equivalent to DCD

Compound: CCCCNP(N)(N)=S [NBPT, N-(n-butyl)-thiophosphoric triamide]
- Measuring Ammonia Generation, Days Ran 3 ([7]; Initial): 9 ppm
- Measuring Ammonia Generation, Days Ran 4 ([7]; Initial): 10 ppm
- Measuring Ammonia Generation, Days Ran 5 ([7]; Initial): 4 ppm
- Measuring Ammonia Generation, Days Ran 6 ([7]; Initial): 4 ppm
- Measuring Ammonia Generation, Days Ran 7 ([7]; Initial): 14 ppm
- Measuring Ammonia Generation, Days Ran 10 ([7]; Initial): 97 ppm
- Measuring Ammonia Generation, Days Ran 11 ([7]; Initial): 88 ppm
- Measuring Ammonia Generation, Total ([7]; Initial, total of days 3-11): 226 ppm
- Measuring Ammonia Generation, Days Ran 3 [7, 12]: 111 ppm
- Measuring Ammonia Generation, Days Ran 4 [7, 12]: 51 ppm
- Measuring Ammonia Generation, Days Ran 5 [7, 12]: 57 ppm
- Measuring Ammonia Generation, Days Ran 6 [7, 12]: 98 ppm
- Measuring Ammonia Generation, Days Ran 7 [7, 12]: 236 ppm
- Measuring Ammonia Generation, Days Ran 10 [7, 12]: 349 ppm
- Measuring Ammonia Generation, Days Ran 11 [7, 12]: 251 ppm
- Measuring Ammonia Generation, Days Ran 12 ([7]; One Month Storage of treated urea, day 12): 301 ppm
- Measuring Ammonia Generation, Days Ran 13 [7, 12]: 153 ppm
- Measuring Ammonia Generation, Total ([7]; One Month Storage of treated urea, total of days 3-13): 1607 ppm
- Measuring Ammonia Generation, Days Ran 1 ([7]; Two Month Storage of treated urea, day 1): 103 ppm
- Measuring Ammonia Generation, Days Ran 5 [7, 13]: 99 ppm
- Measuring Ammonia Generation, Days Ran 6 [7, 13]: 32 ppm
- Measuring Ammonia Generation, Days Ran 7 [7, 13]: 129 ppm
- Measuring Ammonia Generation, Days Ran 8 ([7]; Two Month Storage of treated urea, day 8): 159 ppm
- Measuring Ammonia Generation, Days Ran 9 ([7]; Two Month Storage of treated urea, day 9): 130 ppm
- Measuring Ammonia Generation, Days Ran 13 [7, 13]: 152 ppm
- Measuring Ammonia Generation, Days Ran 14 ([7]; Two Month Storage of treated urea, day 14): 66 ppm
- Measuring Ammonia Generation, Days Ran 15 ([7]; Two Month Storage of treated urea, day 15): 49 ppm
- Measuring Ammonia Generation, Days Ran 16 ([7]; Two Month Storage of treated urea, day 16): 68 ppm
- Measuring Ammonia Generation, Total ([7]; Two Month Storage of treated urea, total): 884 ppm

Continued, in another order:

- seconds (flowability) [1, 8]: 3.85 s
- Clear layer (cm) [2, 9]: 0.3 cm
- 1% dispersibility in water rating [3, 10]: 6
Compound: CC1(C)OCC(CO)O1 (stereo not drawn) [2,2-dimethyl-l,3-dioxolane-4-methanol, 2,2-dimethyl-1,3-dioxolane-4-methanol]
- effect on Example 56's dispersibility in water [3, 11]: improve Example 56's dispersibility in water significantly

- Clear layer in inches of a 4 inch sample ([4]; 2 grams added/25 grams of Example 14, within 24 hours of standing): 0 inches
Compound: CC[N+](C)(CC)CC.[Cl-] [triethyl methyl ammonium chloride]

- seconds (flowability) [1, 8]: 20.3 s
- Clear layer (cm) [2, 9]: 0 cm
- Clear layer in inches of a 4 inch sample ([4]; 8 grams added/25 grams of Example 14, within 24 hours of standing): <1 inches
- Clear layer in inches of a 4 inch sample ([4]; 25 grams added/25 grams of Example 14, within 24 hours of standing): 1 inches
- 1% dispersibility in water rating [3, 10]: 4
Compound: C[S+](C)[O-] [dimethyl sulfoxide]

- seconds (flowability) [1, 8]: 2.35 s
- Clear layer (cm) [2, 9]: 0.4 cm
- 1% dispersibility in water rating [3, 10]: 6
Compound: OCC(O)CO [Glycerin]
- effect on Example 56's dispersibility in water [3, 11]: improve Example 56's dispersibility in water significantly

- seconds (flowability) [1, 8]: 2.49 s
- Clear layer (cm) [2, 9]: 0.45 cm
- 1% dispersibility in water rating [3, 10]: 3
Compound: CN1CCCC1=O [N-methyl pyrrolidone]
